Results from PMC6297782, “DNA-Mediated Interferon Signature Induction by SLE Serum Occurs in Monocytes Through Two Pathways: A Mechanism to Inhibit Both Pathways” (Frontiers in Immunology, 2018).
One block for each molecule: values may come before it.

Assays:
[1] = test system: primary human monocytes / SLE serum-induced ISGs; assay: ISG induction by SLE serum in healthy donor monocytes (qPCR); type: cell-based; conditions: 4 h, two DWEYS concentrations, control peptide at the higher dose, mean ± SD of three independent experiments
CpG:TLR9 binding = assay: Inhibition of CpG binding to TLR9, AlphaScreen; conditions: constant CpG concentration
Experimental: Binding of TLR9 to biotinylated CpG or the DWEYS peptide was assayed in a buffer consisting of 50 mM Tris-HCl pH 7.4, 100 mM NaCl, 1% ultrapure BSA, 0.01% Tween 20 using an amplified luminescent proximity assay with streptavidin-conjugated donor beads and nickel chelate acceptor beads (AlphaScreen; Perkin Elmer, Boston, MA, USA), as described before ([1]).
Figure 2 DWEYS inhibits the transfer of the interferon signature by SLE serum but is not a TLR9 antagonist. (A) Primary human monocytes were incubated with SLE serum with or without DWEYS or with control peptide for 4 h. lSG expression was evaluated by qPCR. […] (B) Assessment of DWEYS and CpG oligonucleotides binding to TLR9. Labeled TLR9 was incubated with varying concentrations of CpG or DWEYS for 30 min in room temperature. Binding was assessed using an AlphaScreen assay as described in the methods section. (C,D) Inhibition assay. Labeled TLR9 and constant, binding concentration of CpG were incubated with different concentrations of DWEYS or a control peptide at neutral (pH 7.4, C) or acidic (pH 6.25, D) condition. Binding was assessed using an AlphaScreen assay as noted in the methods section. Results are representative of three independent experiments. ^***p < 0.001, ns, not significant.

[2] = test system: human monocytes (CpG internalization); assay: FITC-CpG internalization by human monocytes, microscopy; type: cell-based; conditions: 37°C, 15 min (legend 20 min)
Experimental: (§1) For HMGB1 or CpG internalization assays, isolated human monocytes were cultured in 8 well-chamber-slides (Nunc, LabTek, Thermo-Fisher) in X-VIVO 15 culture medium. Cells were allowed to adhere for 2 h and then washed with PBS and incubated with AlexaFluor-594 HMGB1 or FITC-CpG with or without DWEYS for 15 min. Nuclei were counterstained using DAPI. Cells were washed three times with cold PBS and then fixed with 4% PFA and mounted using Dako mounting solution (Agilnet Technologies, Santa Clara, CA, USA).
Non IC-bound DNA can also be internalized by binding to HMGB1, with the HMGB1-DNA complex binding to RAGE ([1]). […] We incubated monocytes from healthy donors with FITC labeled CpG. […] CpG is internalized chaperoned by HMGB1 binding through RAGE.
Figure 4 DWEYS binds HMGB1 and inhibits its binding to RAGE. (A) Monocytes were incubated with labeled CpG (red) and DWEYS or control peptide for 20 min. Cells were counterstained with DAPI prior to imaging. (B) Depicts adjusted fluorescence intensity for three experiments run. (C) Monocytes from C57BL6 wild type (WT) or RAGE^−/− mice were incubated with labeled CpG for 20 min and counterstained with DAPI prior to imaging. (D) Primary human monocytes were incubated with CpG and with or without DWEYS or a control peptide for 20 min. ISG expression was analyzed by qPCR. […]

[3] = test system: CpG-induced ISGs, primary human monocytes; assay: ISG induction by CpG in monocytes (qPCR); type: cell-based; conditions: CpG with or without peptide, 20 min per legend, three independent experiments
HMGB1 = HMGB1 binding, surface plasmon resonance; conditions: SPR Biacore T200, HMGB1 immobilized on CM5 chip, 25°C
Experimental: A Biacore T200 apparatus (GE Healthcare Bio-Sciences, Pittsburgh, PA, USA) was used for real-time binding interaction studies. For HMGB1 and DWEYS peptide binding analyses, HMGB1 protein was immobilized onto a CM5 series chip (GE Healthcare). The HMGB1 protein was diluted to a concentration of 20 μg/mL in 10 mM sodium acetate buffer (pH = 4.5). A 1:1 mixture of N-hydroxysuccinimide and N-ethyl-N-(dimethyaminopropyl) carbodiimide was used to activate two flow-cells of the CM5 chip. […] The sample flow-cell was injected with the diluted HMGB1 at a flow rate of 10 μL/min. The HMGB1 injection was stopped when the surface plasmon resonance reached ~600 RU. For HMGB1 and DWEYS peptide kinetics assay, DWEYS peptide were sequentially injected at a flow rate of 20 μL/min for 120 s at 25°C, the dissociation time was set for 2 min. The concentrations were 16, 31.25, 62.5, 125, 250 μM. The equilibrium dissociation constant (KD) was obtained to evaluate the binding affinity by using the BIAEvaluation 2.0 software (GE Healthcare) assuming a 1:1 binding ratio. At least 3 independent experiments were performed.

[4] = test system: human monocytes (HMGB1 internalization); assay: HMGB1 internalization by human monocytes, microscopy; type: cell-based; conditions: AF-594-labeled HMGB1, human monocytes
Experimental: as §1
(B) Inhibition curve used for IC50 evaluation as noted in the methods section. (C,D) Human monocytes were incubated with labeled HMGB1 (red) alone (C, top panel) or HMGB1 and DWEYS (C, middle panel) or HMGB1 and control peptide (C, bottom panel) for 20 min. Cells were counterstained with DAPI and imaged using a confocal laser scanning microscope. (D) Indicates adjusted fluorescence intensity for three experiments. (E) Primary human monocytes were incubated with HMGB1 and with or without DWEYS or control peptide for 4 h. lSG expression was evaluated using qPCR.

[5] = test system: HMGB1-induced ISGs, primary human monocytes; assay: ISG induction by HMGB1 in monocytes (qPCR); type: cell-based; conditions: HMGB1 with DWEYS or control peptide, 4 h, three independent experiments
Experimental: Human cells were obtained with approval of the Institutional Review Board of the Feinstein Institute for Medical Research. PBMCs were isolated from blood of healthy donors (New York Blood Center) by density centrifugation. Monocytes were enriched by negative selection using a human monocyte enrichment kit ([…] Technologies). Purity of monocytes (CD11b^+, CD14^+, LAIR-1^+) was determined to be >90% by flow cytometry (FACS Calibur, BD Biosciences, San Jose, CA, USA). Purified monocytes (2 × 10^6 cells/ml) were cultured in U-bottom 96-well plates in X-VIVO 15 serum free medium (Lonza) with the indicated reagents and harvested at 4–6 h later, or at the indicated times. […] Murine monocyte purity was determined to be >90%.
Total RNA was extracted from cells (1–2 × 10^6 cells per sample) with an RNeasy kit (Qiagen, Germantown, MD, USA) and cDNA was generated using an iScript cDNA synthesis kit (Bio-Rad, Hercules, CA, USA). qRT-PCR was performed on a Light Cycler 480 II (Roche, Indianapolis, IN, USA). […] The relative induction was calculated by 2^−ΔΔCt.
(B) Inhibition curve used for IC50 evaluation as noted in the methods section. […] (D) Indicates adjusted fluorescence intensity for three experiments. (E) Primary human monocytes were incubated with HMGB1 and with or without DWEYS or control peptide for 4 h. lSG expression was evaluated using qPCR.

primary human monocytes = assay: DWEYS internalization into monocytes (ImageStream); type: cell-based; conditions: 20 min
Experimental: Primary human monocytes were incubated for 20 min with biotin-tagged DWEYS peptide alone or with serum from SLE patients or healthy controls. Following incubation, cells were thoroughly washed and stained with anti-CD14 antibody (R&D Technologies, North Kingston, RI, USA) for 40 min at 4°C. Cells were then washed, fixed using 4% PFA and permeabilized using 1% Triton-X100, followed by incubation with labeled streptavidin for 40 min. Cell nuclei were counterstained with DAPI and cells were imaged using an ImageStream device (Amnis, Burlington, MA, USA).
Figure 3 DWEYS displaces DNA from immune complexes and inhibits DNA internalization into monocytes. (A) Primary human monocytes were incubated with labeled heat aggregated human lgG (hlgG, red) and either DWEYS or a blocking anti-FcRIIa antibody for 20 min. Cells were counterstained with DAPI and imaged using a laser scanning confocal microscope. (B) The graphs indicates adjusted fluorescence intensity for three experiments. (C) SLE serum was incubated with Syto 60 labeled dsDNA (5 μM), followed by DWEYS or control peptide (100 μM) for 30 min each. lgG was then isolated on protein G beads and Syto60 levels from protein G beads were quantified using LICOR scanner. OD was normalized to a standard labeled and filtered DNA. […] (D,E) Primary human monocytes were incubated with biotinylated DWEYS alone or biotinylated DWEYS and SLE serum from patients with or without anti ds DNA antibodies for 20 min. Cells were then stained for CD 14 as a membrane marker and intracellular DWEYS was tagged using fluorochrome labeled streptavidin. Intracellular DWEYS was quantified using lmageStream instrument: DWEYS fluorescence levels by flow cytometry (D) and representative ImageStream cell images (E). One representative experiment of three with similar results is shown. ^*p < 0.05; ns, not significant.

[6] = target: T1, Recombinant HMGB1 (Calmodulin Binding Protein Epitope, Cbp tagged) (UniProt P09429 1-215); assay: SPR; Biacore T200; HMGB1 amine-coupled to a CM5 chip (~600 RU); peptide injected at 16-250 μM, 20 μL/min, 120 s, 25°C; 1:1 binding assumed; apparent KD; conditions: both partners purified
T1 construct: high-mobility group box-1 protein (HMGB1), recombinant; The reagents also list 'reduced HMGB1'; also called high-mobility group box-1
T1 sequence (looked up): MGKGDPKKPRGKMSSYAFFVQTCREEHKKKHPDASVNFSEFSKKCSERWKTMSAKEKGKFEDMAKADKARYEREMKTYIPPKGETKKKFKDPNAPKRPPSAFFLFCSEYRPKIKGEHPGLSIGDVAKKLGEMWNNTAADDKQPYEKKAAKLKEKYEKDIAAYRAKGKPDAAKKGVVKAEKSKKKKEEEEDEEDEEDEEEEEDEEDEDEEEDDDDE

[7] = target: T1, Recombinant HMGB1 (Calmodulin Binding …); assay: SPR; inhibition assay, Biacore T200; sRAGE amine-coupled to a CM5 chip (~500 RU); HMGB1 (0.5 μM) with or without DWEYS 50 to 1.6 μM injected at 30 μL/min for 60 s, 25°C; PBS + 0.05 Tween 20; conditions: both partners purified

binding to immobilized HMGB1 (HMGB1): did not bind
Molecule: TATAT [control peptide]
ISG induction by SLE serum (effect of peptide) [1]: showed an induction of all three ISGs studied
inhibition of CpG binding to TLR9, acidic pH (CpG:TLR9 binding; pH 6.25 (simulating activated endosome)): neither DWEYS, nor a control peptide, used at various concentrations, inhibited the binding
inhibition of CpG binding to TLR9, neutral pH (CpG:TLR9 binding; pH 7.4): neither DWEYS, nor a control peptide, used at various concentrations, inhibited the binding
CpG internalization (effect of peptide) [2]: no effect
CpG induction of ISGs (effect of peptide) [3]: failed to inhibit ISG induction
HMGB1 internalization (effect of peptide) ([4]; 20 min, confocal microscopy): no inhibition of HMGB1 internalization
ISG level on HMGB1 incubation [5]: increased level of ISGs, in the presence of control peptide

Molecule: biotinylated DWEYS [labeled DWEYS]
internalization of DWEYS, no serum (primary human monocytes; biotinylated DWEYS alone): only minimal internalization
internalization of DWEYS, SLE serum with high anti-DNA titer (primary human monocytes; biotinylated DWEYS with SLE serum with high anti-DNA antibody titer): significant intracellular internalization of DWEYS was seen
internalization of DWEYS, SLE serum lacking anti-DNA antibodies (primary human monocytes; biotinylated DWEYS with SLE serum with low titers of anti-DNA antibodies): did not mediate DWEYS internalization
internalization of DWEYS, healthy donor serum (primary human monocytes; biotinylated DWEYS with serum from healthy donors): only minimal internalization

Kd [6]: 185 µM
IC50 [7]: 34.7 µM
B1: DWEYS peptide (peptide)
peptide: DWEYS
notes: the biotinylated form may have been used there; also called pentapeptide DWEYS; DNA mimetope; source: synthetic peptide (GenScript)

B2: high-mobility group box-1 (protein)
chain: MGKGDPKKPRGKMSSYAFFVQTCREEHKKKHPDASVNFSEFSKKCSERWKTMSAKEKGKFEDMAKADKARYEREMKTYIPPKGETKKKFKDPNAPKRPPSAFFLFCSEYRPKIKGEHPGLSIGDVAKKLGEMWNNTAADDKQPYEKKAAKLKEKYEKDIAAYRAKGKPDAAKKGVVKAEKSKKKKEEEEDEEDEEDEEEEEDEEDEDEEEDDDDE
modifications: left off: Calmodulin Binding Protein Epitope (Cbp), end not stated, state not stated
HMGB1 internalization alone [4]: detected in monocytes after 15–30 min in incubation
